Results: PubChem BioAssay (NCI)
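GI50 is the concentration that inhibits growth by half. TGI denotes the concentration required for complete inhibition of growth.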

Tests used:
Test in all cases: DTP human tumour cell line panel, 384-well format
PC-3 prostate = tested on: PC-3 prostate
SF-268 CNS = tested on: SF-268 CNS
786-0 renal = tested on: 786-0 renal
NCI-H522 lung = tested on: NCI-H522 lung
MDA-MB-231 breast = tested on: MDA-MB-231 breast
NCI-H226 lung = tested on: NCI-H226 lung
U251 glioblastoma = tested on: U251 glioblastoma
NCI-H23 lung = tested on: NCI-H23 lung
SK-MEL-5 melanoma = tested on: SK-MEL-5 melanoma
SK-OV-3 ovarian = tested on: SK-OV-3 ovarian
MALME-3M melanoma = tested on: MALME-3M melanoma
OVCAR-5 ovarian = tested on: OVCAR-5 ovarian
OVCAR-3 ovarian = tested on: OVCAR-3 ovarian
CAKI-1 renal = tested on: CAKI-1 renal
HCC-2998 colon = tested on: HCC-2998 colon
T-47D breast = tested on: T-47D breast
SK-MEL-2 melanoma = tested on: SK-MEL-2 melanoma
BT-549 breast = tested on: BT-549 breast
HT29 colon = tested on: HT29 colon
COLO 205 colon = tested on: COLO 205 colon
SR leukemia = tested on: SR leukemia
NCI/ADR-RES ovarian = tested on: NCI/ADR-RES ovarian
SF-539 CNS = tested on: SF-539 CNS
HCT-15 colon = tested on: HCT-15 colon
HOP-92 NSCLC = tested on: HOP-92 NSCLC
M14 melanoma = tested on: M14 melanoma
MCF7 breast = tested on: MCF7 breast
DU-145 prostate = tested on: DU-145 prostate
K-562 leukemia = tested on: K-562 leukemia

## Nc1ccc(/C=C/C(=O)NCc2cc3cc(-c4ccc(C(=O)N5CCC(F)(F)CC5)cc4)cc(-c4ccc(F)cc4)c3o2)cn1
PC-3 prostate
  TGI: 0.165 µM
SF-268 CNS
  GI50: 0.175 µM
  TGI: 0.325 µM
786-0 renal
  GI50: 0.117 µM
  TGI: 0.249 µM
NCI-H522 lung
  GI50: 0.0181 µM
  TGI: 0.0348 µM
MDA-MB-231 breast
  GI50: 0.549 µM
  TGI: 1.95 µM
NCI-H226 lung
  GI50: 7.38 µM
  TGI: > 100 µM
U251 glioblastoma
  GI50: 0.0356 µM
  TGI: 0.148 µM
NCI-H23 lung
  GI50: 0.218 µM
  TGI: 0.43 µM
SK-MEL-5 melanoma
  GI50: 0.174 µM
  TGI: 0.36 µM
SK-OV-3 ovarian
  GI50: 0.0209 µM
  TGI: 0.0491 µM
MALME-3M melanoma
  GI50: 0.374 µM
  TGI: 0.916 µM
OVCAR-5 ovarian
  GI50: 0.0215 µM
  TGI: 0.044 µM
OVCAR-3 ovarian
  GI50: 0.0539 µM
  TGI: 0.217 µM
CAKI-1 renal
  GI50: 0.12 µM
  TGI: 0.282 µM
HCC-2998 colon
  GI50: 0.114 µM
  TGI: 0.27 µM
T-47D breast
  GI50: 0.0201 µM
  TGI: 0.0506 µM
SK-MEL-2 melanoma
  GI50: 0.0414 µM
  TGI: 0.108 µM
BT-549 breast
  GI50: 0.211 µM
  TGI: 0.461 µM
HT29 colon
  GI50: 0.331 µM
  TGI: 0.985 µM
COLO 205 colon
  GI50: 0.0227 µM
  TGI: 0.0534 µM
SR leukemia
  GI50: 1.33 µM
  TGI: 2.69 µM
NCI/ADR-RES ovarian
  GI50: 0.307 µM
  TGI: 1.14 µM
SF-539 CNS
  GI50: 0.0155 µM
  TGI: 0.0303 µM
HCT-15 colon
  GI50: 0.25 µM
  TGI: 0.741 µM
HOP-92 NSCLC
  GI50: 0.441 µM
  TGI: 1.83 µM
M14 melanoma
  GI50: 0.328 µM
  TGI: 1.39 µM
MCF7 breast
  GI50: 0.213 µM
  TGI: 0.485 µM
DU-145 prostate
  GI50: 0.259 µM
  TGI: 0.641 µM
K-562 leukemia
  GI50: 0.0333 µM
  TGI: 0.175 µM
